Data reported in US11945862B2, “Compositions and methods for antibody production” (ImmunoGen, Inc., priority 2017, dated 2024).

Tests used:
[1] = test system: Humanized IgG2 antibody; assay: IgG2 disulfide reduction by CHO cell lysate, DTNB thiol assay; assay type: biochemical; conditions: 1 mM agent, 40% v/v CHO cell lysate, 5 hours, pH 7; control 0.84
Protocol: Humanized IgG2 antibody (1 mg/ml; final concentration) was incubated with 40% v/v CHO cell lysate (˜40 million cells lysed with 0.4 ml RIPA buffer and debris removed by centrifugation) in a total volume of 1 ml. The control sample was adjusted to pH 7 and rotated at RT for 5 hours with 100 μl protein A beads. […] After the incubation time of 5 hours, the supernatant was removed and the beads were washed three times with 10 ml PBS before the thiol amount of the immobilized antibody was analyzed by adding 0.5 mM DTNB and measuring the absorbance at 412 nm.

[2] = test system: humanized N901 antibody; assay: Antibody disulfide reduction by CHO cell lysate (RIPA buffer), thiol/antibody by Ellman's assay; assay type: biochemical
Protocol: For all of the examples described below, cell damage was simulated by multiple freeze-thaw cycles of cells, by addition of RIPA buffer (50 mM Tris-HCl, pH 7.4, 1% NP-40, 0.5% sodium deoxycholate, 0.1% sodium dodecylsulfate), or by using microfluidizer. This damaged cell supernatant or lysate was then incubated with a buffered solution containing antibody with or without the anti-reduction agent being tested, following which the extent of the antibody-disulfide reduction was measured using Ellman's assay for thiol (P. W. Riddles, R. L. Blakeley, and B. Zerner, Methods Enzymol., 91, 49-60, 1983) or by non-reducing SDS protein LabChip analysis. The total thiol level present in the mixture of damaged cell supernatant/lysate was measured initially.
The effect of 1,2-naphthoquinone-4-sulfonic acid (NQS) on antibody-disulfide reduction was studied by incubating 1,2-naphthoquinone-4-sulfonic acid at several concentrations with antibody and damaged CHO lysate. The damaged CHO cell lysate was generated by the addition of 0.5 ml RIPA buffer (50 mM Tris-HCl, pH 7.4, 1% NP-40, 0.5% sodium deoxycholate, 0.1% sodium dodecylsulfate) to 100 million CHO cells. The thiol concentration in CHO cell lysate was measured by Ellman's assay as 2.1 mM.
Each sample contained pre-mixed 0.5 ml RIPA buffer (50 mM Tris-HCl, pH 7.4, 1% NP-40, 0.5% sodium deoxycholate, 0.1% sodium dodecylsulfate) with 1 mg humanized N901 antibody, with or without 1,2-naphthoquinone-4-sulfonic acid (25 micromolar, or 50 micromolar, or 100 micromolar), which was added to a cell pellet of 100 million CHO cells, and the resuspended cells were incubated at ambient temperature for 30 minutes, following which the cell debris were pelleted by centrifugation (16,000 g, 5 min). The supernatant from each sample was added to 50 microliter immobilized-Protein A beads (RepliGen) and rotated at ambient temperature for 3 hours, after which the supernatant was removed and the beads washed with PBS.
(§1) The thiol content of the immobilized antibody was determined by the addition of 0.6 ml of PBS containing 0.5 mM DTNB (Ellman's reagent) to the beads, rotation for about 10 minutes, centrifugation, and absorbance measurement of supernatant at 412 nm.
The effect of anthraquinone-2-sulfonic acid (AQS) on antibody-disulfide reduction was studied during co-incubation of anthraquinone-2-sulfonic acid with antibody and damaged CHO lysate. Each sample contained pre-mixed 1 ml RIPA buffer (50 mM Tris-HCl, pH 7.4, 1% NP-40, 0.5% sodium deoxycholate, 0.1% sodium dodecylsulfate) with 1 mg humanized N901 antibody, with or without 0.2 mM anthraquinone-2-sulfonic acid (AQS), which was added to a cell pellet of 100 million CHO cells, and the resuspended cells were incubated at ambient temperature for 30 minutes, following which the cell debris were pelleted by centrifugation (16,000 g, 5 min). The thiol concentration in CHO cell lysate was 1 mM (Ellman's assay).
as §1, with “The supernatant from each sample was added to 50 microliter immobilized-Protein A beads (RepliGen) and rotated at ambient temperature for 3 hours, after which the supernatant was removed and the beads washed with PBS. The” for “The”
In another experiment, 1 mg huN901 antibody was incubated with CHO lysate, with or without 0.4 mM anthraquinone-2-sulfonic acid for 4 hours. The mixture was then analyzed for thiol/antibody as above.
The thiol concentration in CHO cell lysate was 1 mM (Ellman's assay).
The supernatant from each sample was added to 50 microliter immobilized-Protein A beads (RepliGen) and rotated at ambient temperature for 3 hours, after which the supernatant was removed and the beads washed with PBS. […]

[3] = test system: recombinant humanized IgG1 antibody; assay: Antibody fragmentation in thawed HCCF under nitrogen or air with CDME, non-reducing SDS-Protein Lab Chip; assay type: biochemical
Protocol: A CHO cell culture producing recombinant humanized IgG1 antibody was subjected to centrifugation and the resulting harvest cell culture fluid (HCCF) was frozen at −80° C. […] At various time points, samples were quenched with N-ethylmaleimide (NEM), purified using immobilized Protein A, and analyzed for fragments using non-reducing SDS-Protein Lab Chip electrophoresis. […] In contrast, the sample overlayed with air became less fragmented with time, reaching a plateau of about 25% fragmentation at 20 hours.

[4] = Redox potential of antibody solution with media additive over a range of DTT concentrations; assay type: physicochemical; conditions: 1 mM additive, DTT 0.34 μM to 170 μM, 37° C., 1 h
[5] = test system: humanized FOLR1 IgG1; assay: Antibody fragmentation in HCCF treated with 20% (v/v) microfluidized CHO cells, non-reducing SDS-Protein Lab Chip; assay type: biochemical; conditions: 1 mM of each additive, 6 h; control 78% fragmentation
Protocol: The samples were quenched with 5 mM N-ethylmaleimide (NEM), purified using immobilized Protein A, and subjected to non-reducing SDS-Protein Lab Chip electrophoretic analysis.

[6] = test system: humanized IgG4; assay: IgG4 disulfide reduction by CHO cell lysate, DTNB thiol assay; assay type: biochemical; conditions: 1 mM agent, 30% v/v CHO cell lysate, 4 hours, pH 7; control 7.7
Protocol: All samples were adjusted to pH 7 and incubated with 200 μl protein A beads for 4 hours while rotating at room temperature. After the incubation the supernatant was removed and beads washed three times with 10 ml PBS. To analyze the thiol content of the protein A-bound IgG4 antibody, the beads were incubated with a 0.5 mM DTNB solution for 5 min and the absorbance of the supernatant measured at 412 nm.

[7] = test system: CHO cells; assay: Viability of CHO cells after 1 day treatment; conditions: 0.75 mM, control 98.9%
[8] = test system: M9346A antibody; assay type: biochemical; conditions: 1 mM additive, conditions where control without additive was 100% fragmented
Protocol: Antibody reduction was induced in a biological assay by adding cell lysate to purified monoclonal antibody. […]. Increasing amounts of CHO cell lysate were added to mimic different percentages of cell lysis, ranging from […]. Fresh NADPH was added to a concentration of 400 μM. The mixtures were incubated in a water bath at 37° C. for 1 h. Free thiols were alkylated by addition of 10% (v/v) of 50 mM N-ethyl-maleimide (NEM) solution. Samples were analyzed by non-reduced sodium dodecyl sulfate denaturing capillary electrophoresis (NR-CE-SDS).
To test the capacity for protection further, the stringency of the assay was increased. […].

[9] = test system: Humanized FOLR1 IgG1 antibody; assay: Antibody disulfide reduction by CHO cell lysate (RIPA buffer), thiol per antibody by Ellman's assay; assay type: biochemical; conditions: 2 mM agent
Protocol: Lysates of CHO cells (˜60 million cells lysed in 0.6 ml RIPA buffer and clarified by centrifugation) were added to each of these mixtures. The pH values of all samples were adjusted to 7. […] The samples were incubated with 200 microliter immobilized-Protein A beads (RepliGen) and rotated at ambient temperature for 3 hours, after which the supernatant was removed and the beads washed with PBS. The thiol content of the immobilized antibody was determined by the addition of 0.2 ml of PBS containing 0.5 mM DTNB (Ellman's reagent) to the beads, rotation for about 10 minutes, centrifugation, and absorbance measurement of the supernatant at 412 nm.
The pH values of all samples were adjusted to 7. The samples were incubated with 200 microliter immobilized-Protein A beads (RepliGen) and rotated at ambient temperature for 3 hours, after which the supernatant was removed and the beads washed with PBS. The thiol content of the immobilized antibody was determined by the addition of 0.2 ml of PBS containing 0.5 mM DTNB (Ellman's reagent) to the beads, rotation for about 10 minutes, centrifugation, and absorbance measurement of the supernatant at 412 nm.
To test the effect of L-cystine bis(t-butyl ester) (CDBE) on protecting antibody disulfide bonds from reduction by CHO lysate, humanized FOLR1 IgG1 antibody (2 mg) was incubated with CHO lysate in RIPA buffer (0.6 ml lysate of 60 million CHO cells in 0.6 ml RIPA buffer, clarified by centrifugation) without or with 0.5 or 1 mM CDBE. The samples were rotated at ambient temperature with 200 microliter immobilized-Protein A beads (RepliGen) for 2 hours, after which the supernatant was removed and the beads washed with PBS. The thiol content of the immobilized antibody was determined by the addition of 0.2 ml of PBS containing 0.5 mM DTNB (Ellman's reagent) to the beads, centrifugation, and absorbance measurement of the supernatant at 412 nm.
The samples were rotated at ambient temperature with 200 microliter immobilized-Protein A beads (RepliGen) for 2 hours, after which the supernatant was removed and the beads washed with PBS. The thiol content of the immobilized antibody was determined by the addition of 0.2 ml of PBS containing 0.5 mM DTNB (Ellman's reagent) to the beads, centrifugation, and absorbance measurement of the supernatant at 412 nm.

[10] = test system: M9346A antibody; assay type: biochemical; conditions: 1 mM additive, 100 μM DTT, 37° C., 1 h; control 80%

COC(=O)[C@@H](N)CSSC[C@H](N)C(=O)OC [CDME, L-cystine dimethyl ester]
reduced thiols per antibody [1]: near-zero reduction
thiol/antibody ([2]; 0.05 mM agent, 3 hours, lysate thiol 1 mM, control 5.20): 2.75 thiol/antibody
thiol/antibody ([2]; 0.1 mM agent, 3 hours, lysate thiol 1 mM, control 5.20): 1.85 thiol/antibody
thiol/antibody ([2]; 0.2 mM agent, 3 hours, lysate thiol 1 mM, control 5.20): 1.56 thiol/antibody
thiol/antibody ([2]; 0.4 mM agent alone, 4 hours, control 4.34): 1.37 thiol/antibody
thiol/antibody ([2]; 0.5 mM agent, 3 hours, lysate thiol 1 mM, control 5.20): 1.19 thiol/antibody
thiol/antibody ([2]; 0.75 mM agent, 4° C. overnight, control 2.29): 0.96 thiol/antibody
time the antibody was protected from reduction ([3]; 1 mM CDME with nitrogen): up to 20 hours
time the antibody was protected from reduction ([3]; 2 mM CDME with nitrogen): ≤ 45 h
expected protection against antibody disulfide bond reduction ([3]; combination of oxygen sparging with CDME): highly effective
fragmentation with air overlay plus agent versus air overlay alone ([3]; ~1 mM CDME with air overlay, up to 72 hours): lowered the fragmentation further throughout the course of the study
modulation of redox potential [4]: constant redox potential across all DTT concentrations
fragmentation compared with no additive control [5]: much lower fragmentations
thiol groups per antibody [6]: 0.004 thiol groups per antibody
viability of CHO cells [7]: 98.9%
protection at increased assay stringency [8]: protective of disulfide reduction
decrease in disulfide reduction compared to the control ([9]; 100 mM phosphate buffer pH 7, 2 hours): ~89%
thiol per antibody ([9]; 100 mM phosphate buffer pH 7, 2 hours, control 1.16): ~0.13 thiol per antibody
thiol per antibody ([9]; 3 hours, pH 7, lysate of ~40 million cells, control 0.95): about 0.02 thiol per antibody
thiol per antibody ([9]; 3 hours, pH 7, lysate of ~60 million cells, control 1.96): about 0.25 thiol per antibody
intact antibody [10]: 100%
